Data taken from patent US20100260818A1, “STABLE MEDICATED CHEWING GUM COMPRISING CYCLODEXTRIN INCLUSION COMPLEX” (FERTIN PHARMA A/S, priority 2007, published 2010).
“And” between values parts separate entries of the source, which are not always exact repeats. Identical values can stand only once.

Key:
[1] = Suspension homogeneity (visual) and chemical stability of cetirizine and β-cyclodextrin suspension with hydroxy acids, salts, NaOH; details: for Suspension homogeneity compared to control: visual
Protocol: The effect of different hydroxy acids, hydroxy acid salts and sodium hydroxide on the suspension homogeneity and also on the chemical stability of cetirizine in the suspensions was studied.
The cetirizine and β-cyclodextrin suspensions were prepared by stirring aqueous cetirizine solution with cyclodextrin and with the additives.

[2] = β-cyclodextrin content of filtrates of cetirizine.2HCL/β-cyclodextrin reaction mixture (HPLC, ELSD); format: physicochemical
[3] = Powder sample storage stability, impurities by HPLC (Example 9); format: physicochemical; details: 34 days, 40 degrees C., 75% relative humidity; cyclodextrin and cetirizine uncomplexed in same formulation
Protocol: The four samples were stored in capped 50 mL Polyethylene Duma™ containers (Superfos Pharma Pack, Denmark) at 40 degrees C. and 75% relative humidity for 34 days, and were subsequently analysed by HPLC.

[4] = molar ratio CTZ:Additive not calculated

SMILES: O=C(O)CC(O)(CC(=O)O)C(=O)O [Citric acid]
- Suspension homogeneity compared to control ([1]; molar ratio CTZ:Additive 1:1): no significant change
- BCD content in the filtrate ([2]; molar ratio CTZ:Additive 1:1): 154 mg/mL

SMILES: O=C([O-])C(O)C(O)C(=O)[O-].[K+].[Na+] (stereo not drawn) [K—Na-tartarate, Potassium-sodium-tartarate]
- Suspension homogeneity compared to control ([1]; molar ratio CTZ:Additive 1:5): better
- BCD content in the filtrate ([2]; molar ratio CTZ:Additive 1:5): 120 mg/mL

SMILES: O=C(O)C(O)C(O)C(=O)O (stereo not drawn) [Tartaric acid]
- Suspension homogeneity compared to control ([1]; molar ratio CTZ:Additive 1:2): better
- BCD content in the filtrate ([2]; molar ratio CTZ:Additive 1:2): 130 mg/mL

SMILES: O=C([O-])CC(O)(CC(=O)[O-])C(=O)[O-].[Na+].[Na+].[Na+] [Na-citrate, Tri-sodium citrate]
- Chemical degradations affecting β-cyclodextrin and cetirizine component of the binary formulation ([1]; effective amount of additive 3-6% by weight): effectively suppressed
- Suspension homogeneity compared to control ([1]; molar ratio CTZ:Additive 1:1): better
- Suspension homogeneity compared to control ([1]; molar ratio CTZ:Additive 1:2): better
- Suspension homogeneity compared to control ([1]; molar ratio CTZ:Additive 1:3): better
- Suspension homogeneity compared to control ([1]; molar ratio CTZ:Additive 1:4): better
- BCD content in the filtrate ([2]; molar ratio CTZ:Additive 1:4): 135 mg/mL

SMILES: OC[C@H]1O[C@@H]2O[C@H]3[C@H](O)[C@@H](O)[C@@H](O[C@H]4[C@H](O)[C@@H](O)[C@@H](O[C@H]5[C@H](O)[C@@H](O)[C@@H](O[C@H]6[C@H](O)[C@@H](O)[C@@H](O[C@H]7[C@H](O)[C@@H](O)[C@@H](O[C@H]8[C@H](O)[C@@H](O)[C@@H](O[C@H]1[C@H](O)[C@H]2O)O[C@@H]8CO)O[C@@H]7CO)O[C@@H]6CO)O[C@@H]5CO)O[C@@H]4CO)O[C@@H]3CO [un-complexed cyclodextrin, Beta-cyclodextrin]
- Effect on the stability of cetirizine [3]: does not have any significant effect

SMILES: [Na+].[OH-] [NaOH, Sodium hydroxide]
- Suspension homogeneity compared to control [1, 4]: no significant change
- BCD content in the filtrate [2, 4]: 115 mg/mL and 125 mg/mL
